Like-named read-outs stand apart in the source and are kept apart here.
Assays:
[1] = system: mice from inbred strains with two different haplotypes of the Sac gene; settings: strain preferences known from Lush et al., cited from earlier work
[2] = system: mouse strains with 'B6-like' or '129-like' haplotype of Gpr98
Text: (§1) Preferences for 10% ethanol for the same mouse strains were studied as described in Abstr. of the 23th RSA Meeting (June 2000, Denver, Colo.).

129.B6-Sac congenic mice = system: 129.B6-Sac congenic mice
Text: as §1

[3] = strains with the 129-like haplotype of Sac, p=0.0015 vs B6-like
[4] = strains with the B6-like haplotype of Sac

O=C1NS(=O)(=O)c2ccccc21 [saccharin]
sweetener preference [1, 3]: 57±2%
sweetener preference [1, 4]: 82±4%

OC[C@H]1O[C@@](CO)(O[C@H]2O[C@H](CO)[C@@H](O)[C@H](O)[C@H]2O)[C@@H](O)[C@@H]1O [sucrose]
sweetener preference [1, 3]: 54±1%
sweetener preference [1, 4]: 86±6%

CCO [ethanol]
preference for 10% ethanol ([2]; strains with the '129-like' haplotype, n=10 strains, p<0.05, one-tailed t-test): 12±2%
preference for 10% ethanol ([2]; strains with the 'B6-like' haplotype, n=14 strains): 20±4%
consumption of 10% ethanol solution (129.B6-Sac congenic mice; congenic mice homozygous for the 194-kb donor fragment from the B6 strain): 1.50 ± 0.15 mL/day
consumption of 10% ethanol solution (129.B6-Sac congenic mice; congenic mice without the donor fragment, p<0.05, one-tailed t-test): 1.19 ± 0.11 mL/day

— US20040081964A1, “Gene and sequence variation associated with sensing carbohydrate compounds and other sweeteners” (priority 2002, published 2004)
